Experimental data: patent US20080166408A1, “Oral Dosage Form Comprising Rosiglitazone” (priority 2005, published 2008)

Assay: pH dependent solubility of Compound A
Type: physicochemical
Details: acidic conditions of the stomach (around pH 2) versus near neutral conditions of the lower intestine (around pH 7); Compound A and its salts or solvates, in particular the maleate salt

Which pH dependent solubility does the source give for CN(CCOc1ccc(CC2SC(=O)NC2=O)cc1)c1ccccn1 (stereo not shown) [Compound A, 5-[4-[2-(N-methyl-N-(2 pyridyl)amino)ethoxy]benzyl]thiazolidine-2,4-dione] here?
Its pH dependent solubility is “more soluble in the acidic conditions of the stomach (around pH 2) than in the near neutral conditions of the lower intestine (around pH 7)”.
